The values below come from PubChem BioAssay AID602156 (GNF / Scripps Winzeler lab, 2011).

pIC50: −log10 of the molar value. Activity calls are given as the source filed them. The rule behind the calls is not given here. Where only a bound is given, the exact number is not on record here.

This experiment concerns P. yoelii liver stage in HepG2-A16-CD81EGFP, imaging. The experiment is described as follows: exo-erythrocytic parasite development inhibition – imaging, Malaria Box, P. yoelii, HepG2-A16-CD81EGFP, dose response (AID 602156).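 Note: infected cells exposed to compound for 48 hours before fixation.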

Usually pIC50 stands for the IC50 on a negative log10 scale, so that one unit is a factor of ten. On to `CCCCC(=O)NC(c1cccc([N+](=O)[O-])c1)c1ccc2cccnc2c1O` (stereo unspecified), for which the pIC50 is 6.35.

With `O=c1c2c([nH]c3ccccc13)CCCCCC2`, the pIC50 was 6.14.

In the case of `OC(CNC1CCCCC1)Cn1c2ccccc2c2ccccc21` (stereo unspecified), the pIC50 is 5.41.

As for `CCC(/C=C1\Sc2ccc(OC)cc2N1CCCS(=O)(=O)O)=C\c1sc2ccc(OC)cc2[n+]1CCCS(=O)(=O)O`, the pIC50 is 7.95.

`OCCNc1nc(Nc2ccc(F)cc2)nc2ccccc12`: the negative-log IC50 (pIC50) was 6.87.

For `O=c1c2ccccc2[nH]c2ccc(I)cc12`, the pIC50 is 6.98.

In the case of `CCCCC(CC)C(=O)N1CCN(C(CC)c2nc3ccccc3c(=O)n2C)CC1` (stereo unspecified), the pIC50 is 6.64.

For the compound `CCCc1ccc(C(=O)NC(=O)c2ccccc2O)cc1`, the pIC50 was 8.38.

What is called IC50 is the midpoint of a concentration-inhibition curve. With `COC(=O)c1ccc(C2C3=C(CC(c4ccco4)CC3=O)Nc3ccccc3N2C(=O)c2ccccc2)cc1` (stereo unspecified), the IC50 is > 4780 nM (inactive).

Consider `CCCC(=O)N1CCN(c2nc(Cc3ccccc3)c3c(c2C#N)CC(C)(C)OC3)CC1`, for which the pIC50 is 6.46.

Take `CCCC(=O)NC(c1ccc(Cl)cc1)c1ccc2cccnc2c1O` (stereo unspecified): the pIC50 was 6.72.

As for `CCOC(=O)C1=C(C)NC2=C(C(=O)C(C(=O)OCC)C(c3cccc(OC)c3)C2)C1c1cc(OC)c(OC)c(OC)c1` (stereo unspecified), the pIC50 was 6.63.

As to `CCC1CN2CCc3cc(OC)c(OC)cc3C2CC1CC1NCCc2cc(OC)c(OC)cc21` (stereo unspecified), the pIC50 is 7.10.

In the case of `Cc1ncc(CCCCN(C)C)c2c1[nH]c1ccccc12`, the pIC50 is 5.56.

Take `COc1cncc(-c2cncc(-c3ccc(C)cc3)n2)c1`: the IC50 is > 10000 nM (inactive).

With `O=[N+]([O-])c1ccc(N2CCCN(C(=S)Nc3ccc(F)cc3Br)CC2)nc1`, the pIC50 is 5.34.
